pEC50, pIC50: −log10 of the molar value. The source made the active and inactive calls. The calls are words filed in the database; no cut-off is given here.
Legend:
[1] = biological target: T1, Muscarinic acetylcholine receptor M1 (Homo sapiens) (UniProt P11229); test: (§1) Antagonist activity at human muscarinic M1 receptor; format: functional; parameters: concentration or dose not given beside the values
T1 sequence (whole entry): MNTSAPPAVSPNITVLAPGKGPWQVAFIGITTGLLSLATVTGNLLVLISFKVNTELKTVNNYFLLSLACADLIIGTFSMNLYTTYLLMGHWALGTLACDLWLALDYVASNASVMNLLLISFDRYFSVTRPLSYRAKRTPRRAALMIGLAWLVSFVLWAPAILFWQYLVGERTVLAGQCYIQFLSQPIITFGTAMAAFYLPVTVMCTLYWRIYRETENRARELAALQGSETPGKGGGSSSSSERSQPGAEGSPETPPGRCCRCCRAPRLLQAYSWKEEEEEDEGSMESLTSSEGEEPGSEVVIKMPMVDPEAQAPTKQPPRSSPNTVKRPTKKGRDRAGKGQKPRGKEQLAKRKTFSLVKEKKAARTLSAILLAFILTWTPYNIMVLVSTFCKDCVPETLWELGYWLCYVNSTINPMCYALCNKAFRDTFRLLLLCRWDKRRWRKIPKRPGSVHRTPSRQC

[2] = biological target: T2, Muscarinic acetylcholine receptor M1 (Homo sapiens, UniProt P11229); test: as §1; format: functional; conditions: for pIC50: read-out: IC50
T2 sequence (P11229 whole entry): T1 sequence (whole entry)

[3] = biological target: T1, Muscarinic acetylcholine receptor M1 (Homo sapiens); test: Antagonist activity at human muscarinic M1 receptor at 30 uM; format: functional
[4] = biological target: T1, Muscarinic acetylcholine receptor M1 (Homo sapiens); test: Antagonist activity at human muscarinic M1 receptor expressed in CHO cells assessed as inhibition of Ach-mediated response by calcium mobilization assay; format: functional, cell-based
[5] = biological target: Muscarinic acetylcholine receptor M3 (Homo sapiens, UniProt P20309); test: Antagonist activity at human muscarinic M3 receptor by calcium mobilization assay; format: functional
[6] = biological target: T3, Muscarinic acetylcholine receptor M5 (Homo sapiens, UniProt P08912); test: Antagonist activity at human muscarinic M5 receptor by calcium mobilization assay; format: functional
T3 sequence (P08912 whole entry): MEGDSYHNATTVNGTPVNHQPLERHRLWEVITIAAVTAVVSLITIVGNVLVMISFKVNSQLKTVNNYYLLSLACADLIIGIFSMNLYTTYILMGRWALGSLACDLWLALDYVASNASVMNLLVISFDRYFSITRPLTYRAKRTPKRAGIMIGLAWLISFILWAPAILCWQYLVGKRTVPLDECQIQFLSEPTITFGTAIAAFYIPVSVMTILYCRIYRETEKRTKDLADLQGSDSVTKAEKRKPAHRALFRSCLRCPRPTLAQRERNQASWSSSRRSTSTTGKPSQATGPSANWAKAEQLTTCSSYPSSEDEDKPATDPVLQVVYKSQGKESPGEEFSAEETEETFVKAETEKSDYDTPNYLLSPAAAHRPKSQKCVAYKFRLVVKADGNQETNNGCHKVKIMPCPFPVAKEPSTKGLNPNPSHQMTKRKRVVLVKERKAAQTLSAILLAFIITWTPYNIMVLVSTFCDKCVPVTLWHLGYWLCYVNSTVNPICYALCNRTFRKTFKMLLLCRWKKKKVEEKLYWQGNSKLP

[7] = biological target: T4, Muscarinic acetylcholine receptor M4 (Homo sapiens, UniProt P08173); test: Antagonist activity at human muscarinic M4 receptor by calcium mobilization assay; format: functional
T4 sequence (P08173 whole entry): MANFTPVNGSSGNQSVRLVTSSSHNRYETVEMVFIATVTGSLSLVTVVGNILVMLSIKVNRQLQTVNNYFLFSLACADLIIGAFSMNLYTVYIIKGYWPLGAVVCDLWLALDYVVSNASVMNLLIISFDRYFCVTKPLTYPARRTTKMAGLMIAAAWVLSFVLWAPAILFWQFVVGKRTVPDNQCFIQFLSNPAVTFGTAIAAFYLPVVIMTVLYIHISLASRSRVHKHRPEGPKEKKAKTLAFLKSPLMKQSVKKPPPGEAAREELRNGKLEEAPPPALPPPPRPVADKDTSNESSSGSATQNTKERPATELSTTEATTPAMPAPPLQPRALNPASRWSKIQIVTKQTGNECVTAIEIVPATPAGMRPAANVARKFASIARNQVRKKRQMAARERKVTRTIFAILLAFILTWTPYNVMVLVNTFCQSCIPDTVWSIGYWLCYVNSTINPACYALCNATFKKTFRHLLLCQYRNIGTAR

[8] = biological target: T5, Muscarinic acetylcholine receptor M2 (Homo sapiens, UniProt P08172); test: Antagonist activity at human muscarinic M2 receptor by calcium mobilization assay; format: functional
T5 sequence (P08172 whole entry): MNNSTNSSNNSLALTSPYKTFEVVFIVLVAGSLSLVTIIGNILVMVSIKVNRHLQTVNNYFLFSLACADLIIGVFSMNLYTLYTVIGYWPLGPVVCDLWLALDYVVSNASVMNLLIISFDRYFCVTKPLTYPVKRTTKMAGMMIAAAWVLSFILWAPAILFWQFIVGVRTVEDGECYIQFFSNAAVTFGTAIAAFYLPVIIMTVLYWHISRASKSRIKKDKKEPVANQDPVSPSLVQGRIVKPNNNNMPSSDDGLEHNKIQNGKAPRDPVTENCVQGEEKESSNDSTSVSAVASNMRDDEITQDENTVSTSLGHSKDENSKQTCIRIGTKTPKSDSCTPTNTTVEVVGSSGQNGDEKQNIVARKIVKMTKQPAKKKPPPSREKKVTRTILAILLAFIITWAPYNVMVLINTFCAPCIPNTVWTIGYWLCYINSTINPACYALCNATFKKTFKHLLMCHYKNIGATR

Sequence of Muscarinic acetylcholine receptor M3 (P20309 whole entry): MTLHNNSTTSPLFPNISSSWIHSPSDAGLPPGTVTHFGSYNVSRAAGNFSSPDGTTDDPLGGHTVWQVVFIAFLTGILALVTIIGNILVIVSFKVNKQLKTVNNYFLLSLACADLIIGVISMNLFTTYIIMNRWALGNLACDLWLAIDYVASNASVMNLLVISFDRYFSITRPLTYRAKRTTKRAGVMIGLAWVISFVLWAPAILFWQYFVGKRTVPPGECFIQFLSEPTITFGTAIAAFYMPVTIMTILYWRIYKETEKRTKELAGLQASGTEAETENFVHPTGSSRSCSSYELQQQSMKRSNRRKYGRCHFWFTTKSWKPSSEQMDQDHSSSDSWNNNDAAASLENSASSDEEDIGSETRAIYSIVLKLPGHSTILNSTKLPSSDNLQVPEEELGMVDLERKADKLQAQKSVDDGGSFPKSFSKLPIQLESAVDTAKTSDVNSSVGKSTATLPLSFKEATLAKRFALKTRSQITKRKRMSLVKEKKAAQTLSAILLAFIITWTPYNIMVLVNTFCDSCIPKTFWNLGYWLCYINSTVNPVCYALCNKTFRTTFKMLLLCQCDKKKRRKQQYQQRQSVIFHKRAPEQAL

SMILES | Activity [1] | pIC50 [2] | Activity [3] | also measured
CCN1CCN(C(=O)C(Cc2ccccc2)c2ccccc2)CC1(C)C (configuration not stated) | 1.5% | 7.05 |  | 
O=C(C(Cc1ccccc1)c1ccccc1)N1CCC(N2CCCC2)CC1 (configuration not stated) | 3.5% | 5.42 |  | 
CN1CCN(C(=O)C(C)(Cc2ccccc2)c2ccccc2)CC1 (configuration not stated) | 39.1% | < 5.00 |  | 
CN1CCN(C(=O)/C(=C\c2ccccc2)c2ccccc2)CC1 |  | 6.74 |  | 
CN(C)CCNC(=O)C(Cc1ccccc1)c1ccccc1 (configuration not stated) | 3.5% | < 5.00 | inactive | 
CN1CCN(C(=O)[C@@H](Oc2ccccc2)c2ccccc2)CC1 (racemic) | 107% | < 5.00 |  | 
CN1CCN(C(=O)C2(c3ccccc3)CC2c2ccccc2)CC1 (configuration not stated) |  | 5.60 |  | 
CN1CCN(C(=O)C(F)(Cc2ccccc2)c2ccccc2)CC1 (configuration not stated) | 3.1% | 7.54 |  | pEC50 [2]: 7.55
CN1CCN(C(=O)C(Cc2cccnc2)c2ccccc2)CC1 (configuration not stated) | 1.1% | 6.30 |  | 
CN(C)CCN(C)C(=O)C(Cc1ccccc1)c1ccccc1 (configuration not stated) | 37.1% | < 5.00 | inactive | 
CN(C)CCOC(=O)C(Cc1ccccc1)c1ccccc1 (configuration not stated) | 1.5% | 6.85 |  | 
CN1CCN(C(=O)[C@](F)(Cc2ccccc2)c2ccccc2)CC1 (mixture of isomers) | 2.1% | 5.62 |  | 
CN1CCN(C(=O)[C@@](F)(Cc2ccccc2)c2ccccc2)CC1 (mixture of isomers) | 2.7% | 7.74 |  | inhibition [4]: Dose-dependent effect; pIC50 [5]: < 5.82; pIC50 [6]: 7.09; pIC50 [7]: 6.85; pIC50 [8]: < 5.82
CN1CCN(C(=O)[C@H](Oc2ccccc2)c2ccccc2)CC1 (mixture of isomers) | 3.4% | 6.62 |  | 
CCN1CCN(C(=O)C(Cc2ccccc2)c2ccccc2)CC1 (configuration not stated) | 1.8% | 6.24 |  | 
CN1CCN(C(=O)C(Cc2ccncc2)c2ccccc2)CC1 (configuration not stated) | 3.5% | 6.06 |  | 

Further lines, with some results ahead:

Activity [1] | pIC50 [2] | Activity [3] | SMILES | also measured
1.4% | 7.00 |  | CC1CN(C(=O)C(Cc2ccccc2)c2ccccc2)CCN1C (configuration not stated) | 
35.9% | < 5.00 | inactive | CC(C)CN1CCN(C(=O)C(Cc2ccccc2)c2ccccc2)CC1 (configuration not stated) | 
29.6% | < 5.00 | inactive | CC1CCN(C)CCN1C(=O)C(Cc1ccccc1)c1ccccc1 (configuration not stated) | 
17.2% | < 5.00 | inactive | CN1CCN(C(=O)C(Cc2ccccc2)c2ccccc2)C(c2ccccc2)C1 (configuration not stated) | 
28.5% | < 5.00 | inactive | O=C(C(Cc1ccccc1)c1ccccc1)N1CCN(c2ccncc2)CC1 (configuration not stated) | 
10.9% | < 5.00 | inactive | COCCN1CCN(C(=O)C(Cc2ccccc2)c2ccccc2)CC1 (configuration not stated) | 
2.4% | 7.36 |  | CN1CCN(C(=O)C(Cc2ccccc2)c2ccccc2)CC1 (racemic) | 
2.2% | 7.42 |  | CCN1CCCN(C(=O)C(Cc2ccccc2)c2ccccc2)CC1 (configuration not stated) | 
inactive |  |  | CN1CCN(C(=O)[C@@H](Cc2ccccc2)c2ccccc2)CC1 | 
6.43% | 6.43 |  | O=C(C(Cc1ccccc1)c1ccccc1)N1CC[C@H]2CCCN2CC1 (some centres not stated) | IC50 ([2]; read-out: pIC50 (converted)): 2140 nM
inactive |  |  | CN1CCC(N2CCN(C(=O)C(Cc3ccccc3)c3ccccc3)CC2)CC1 (configuration not stated) | 
24.3% | < 5.00 | inactive | O=C(C(Cc1ccccc1)c1ccccc1)N1CCCNCC1 (configuration not stated) | 
2% | 7.00 |  | CN1CCCN(C(=O)C(Cc2ccccc2)c2ccccc2)CC1 (configuration not stated) | 
2.4% | 7.00 |  | CC(C)N1CCCN(C(=O)C(Cc2ccccc2)c2ccccc2)CC1 (configuration not stated) | 
8.7% | < 5.00 | inactive | C[N+]1(C)CCN(C(=O)C(Cc2ccccc2)c2ccccc2)CC1 (configuration not stated) | 
inactive |  |  | O=C(C(Cc1ccccc1)c1ccccc1)N1CCN(CC(F)(F)F)CC1 (configuration not stated) | 
62.8% | < 5.00 | inactive | CN1CCN(C(=O)C(Cc2ccccc2)c2ccccc2)CC1c1ccccc1 (configuration not stated) | 
0.5% | 5.70 |  | O=C(C(Cc1ccccc1)c1ccccc1)N1CCN2CCCCC2C1 (configuration not stated) | 
26.1% | < 5.00 | inactive | O=C(C(Cc1ccccc1)c1ccccc1)N1CCNCC1 (configuration not stated) | 
6.7% | < 5.00 | inactive | CN1C[C@@H]2CN(C(=O)C(Cc3ccccc3)c3ccccc3)C[C@@H]2C1 (some centres not stated) | 
1.3% | 6.36 |  | CC(C)N1CCN(C(=O)C(Cc2ccccc2)c2ccccc2)CC1 (configuration not stated) | 
 | 7.48 |  | CN1CCN(C(=O)[C@H](Cc2ccccc2)c2ccccc2)CC1 | inhibition [4]: Dose-dependent effect
1.4% | 6.59 |  | CCN1CCN(C(=O)C(Cc2ccccc2)c2ccccc2)CC1C (configuration not stated) | 

Source: ChEMBL document CHEMBL2163227, “Synthesis and biological characterization of a series of novel diaryl amide M₁ antagonists” (Bioorg Med Chem Lett, 2012)
